For eleven compounds, IC50 results are on record in patent publication US10450297B2, “Sulfonyl amide derivatives for the treatment of abnormal cell growth” (Pfizer, Inc., priority 2007, dated 2019).

The target in this test is FAK kinase (catalytic construct FAK(410-689)) (Homo sapiens (Human), UniProt Q05397). The experiment in a line: FAKcd kinase ELISA (inhibition of poly-glu-tyr phosphorylation by FAK(410-689)). Type of test: biochemical. To be noted: 50 μM final ATP.
FAK kinase (catalytic construct FAK(410-689)), sequence (Q05397 410-689): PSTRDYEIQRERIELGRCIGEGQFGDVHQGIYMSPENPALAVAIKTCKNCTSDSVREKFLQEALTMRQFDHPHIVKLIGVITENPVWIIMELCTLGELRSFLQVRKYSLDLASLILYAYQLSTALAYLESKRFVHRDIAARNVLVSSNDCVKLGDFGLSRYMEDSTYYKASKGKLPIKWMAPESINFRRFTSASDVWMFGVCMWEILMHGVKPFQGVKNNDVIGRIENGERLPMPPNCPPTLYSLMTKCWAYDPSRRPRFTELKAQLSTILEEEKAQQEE
Compound `Cc1ccc(C(N)=O)cc1Nc1ncc(C(F)(F)F)c(NCc2nccnc2N(C)S(C)(=O)=O)n1` [Compound 309, 4-methyl-3-({4-[({3-[methyl(methylsulfonyl)amino]pyrazin-2-yl}methyl)amino]-5-(trifluoromethyl)pyrimidin-2-yl}amino)benzamide] came in with an IC50 of 3.51 nM.

Take `CN1CCN(C(=O)c2cccc(Nc3ncc(C(F)(F)F)c(NCc4cccnc4N(C)S(C)(=O)=O)n3)c2)CC1` [Compound 199, N-methyl-N-[3-({[2-({3-[(4-methylpiperazin-1-yl)carbonyl]phenyl}amino)-5-(trifluoromethyl)pyrimidin-4-yl]amino}methyl)pyridin-2-yl]methanesulfonamide]: the IC50 worked out at 2.56 nM. `CCOC(=O)[C@H]1CC[C@@H](Nc2ncc(C(F)(F)F)c(NCc3cccnc3N(C)S(C)(=O)=O)n2)CC1` [Compound 60, ethyl cis-4-({4-(({2-[methyl(methylsulfonyl)amino]pyridin-3-yl}methyl)amino]-5-(trifluoromethyl)pyrimidin-2-yl}amino)cyclohexanecarboxylate] had an IC50 of 188 nM.

In the case of `Cc1cc(C(N)=O)ccc1Nc1ncc(C(F)(F)F)c(NCc2cccnc2N(C)S(C)(=O)=O)n1` [Compound 341, 3-methyl-4-({4-[({2-[methyl(methylsulfonyl)amino]pyridin-3-yl}methyl)amino]-5-(trifluoromethyl)pyrimidin-2-yl}amino)benzamide], the IC50 is less than 0.595 nM. Under `CN(c1ncccc1CNc1nc(NC2CCC2)ncc1C(F)(F)F)S(C)(=O)=O` [Compound 38, N-[3-({[2-(cyclobutylamino)-5-(trifluoromethyl)pyrimidin-4-yl]amino}methyl)pyrldin-2-yl]-N-methylmethane-sulfonamide] stands 497 nM. For the compound `CN(c1ccnc(CNc2nc(Nc3ccc(C(N)=O)cc3)ncc2C(F)(F)F)c1)S(C)(=O)=O` [Compound 404, 4-({4-[({4-[methyl(methylsulfonyl)amino]pyridin-2-yl}methyl)amino]-5-(trifluoromethyl)pyrimidin-2-yl}amino)benzamide], half-maximal inhibition (IC50) required 2.07 nM. Under `Cc1cccc(CNc2nc(Nc3ccccc3)ncc2C(F)(F)F)c1N(C)S(C)(=O)=O` [Compound 64, N-[2-({[2-anilino-5-(trifluoromethyl)pyrimidin-4-yl)amino}methyl)-6-methylphenyl]-N-methylmethanesulfonamide] stands 0.6 nM; under `CC(=O)NCC(=O)Nc1cccc(Nc2ncc(C(F)(F)F)c(NCc3ncccc3N(C)S(C)(=O)=O)n2)c1` [Compound 398, N~2~-acetyl-N-[3-({4-[({3-[methyl(methylsulfonyl)amino]pyridin-2-yl}methyl)amino]-5-(trifluoromethyl)pyrimidin-2-yl}amino)phenyl]glycinamide], 2.18 nM. Consider `CN(c1cccc(CNc2nc(Nc3ccc(C(N)=O)nc3)ncc2C(F)(F)F)c1)S(C)(=O)=O` [Compound 376, 5-{[4-({3-[methyl(methylsulfonyl)amino]benzyl}amino)-5-(trifluoromethyl)pyrimidin-2-yl]amino}pyridine-2-carboxamide], for which the IC50 came out at 8.15 nM. Under `CN(c1cccc(CNc2nc(Nc3ccc(C#N)c(O)c3)ncc2C(F)(F)F)c1)S(C)(=O)=O` [Compound 392, N-{3-[({2-[(4-cyano-3-hydroxyphenyl)amino]-5-(trifluoromethyl)pyrimidin-4-yl}amino)methyl]phenyl}-N-methylmethanesulfonamide] stands 4.51 nM. Regarding `CN(c1ncccc1CNc1nc(Nc2ccc(CNC(N)=O)cc2)ncc1C(F)(F)F)S(C)(=O)=O` [Compound 216, N-{3-[({2-[(4-{[(aminocarbonyl)amino]-methyl}phenyl)amino]-5-(trifluoromethyl)pyrimidin-4-yl}amino)methyl]pyridin-2-yl}-N-methylmethane-sulfonamide], the IC50 was 0.6 nM.
